These results are taken from ChEMBL document CHEMBL3352679, “Structure and evaluation of antibacterial and antitubercular properties of new basic and heterocyclic 3-formylrifamycin SV derivatives obtained via 'click chemistry' approach” (Eur J Med Chem, 2014).

For data set [1], the system named is Staphylococcus aureus. The experiment in a line: Antibacterial activity against Staphylococcus aureus ATCC 4163 after 18 hrs by serial microdilution method. The format is functional. The note with it: ATCC 4163, 18 h. Background: In broth dilution the organism is exposed to a series of concentrations in liquid medium.
Data set [2] concerns Staphylococcus aureus. The experiment in a line: Antibacterial activity against Staphylococcus aureus ATCC 25923 after 18 hrs by serial microdilution method. The format is functional. The note with it: ATCC 25923, 18 h.
Data set [3] concerns Staphylococcus aureus. The experiment in a line: Antibacterial activity against Staphylococcus aureus ATCC 6538 after 18 hrs by serial microdilution method. In kind it is functional. The note with it: ATCC 6538, 18 h.
Data set [4] concerns Staphylococcus epidermidis. As to the kind of experiment: Antibacterial activity against Staphylococcus epidermidis ATCC 12228 after 18 hrs by serial microdilution method. In kind it is functional. The note with it: ATCC 12228, 18 h.
In data set [5] the test system is Staphylococcus epidermidis. The experiment in a line: Antibacterial activity against Staphylococcus epidermidis ATCC 49134 after 18 hrs by serial microdilution method. The format is functional. The note with it: ATCC 49134, 18 h.
Another data set concerns Escherichia coli. The experiment in a line: Antibacterial activity against Escherichia coli ATCC 10538 after 18 hrs by serial microdilution method. In kind it is functional. The note with it: ATCC 10538, 18 h.
In another data set the test system is Enterococcus faecalis. As to the kind of experiment: Antibacterial activity against Enterococcus faecalis ATCC 19433 after 18 hrs by serial microdilution method. The format is functional. The note with it: ATCC 19433, 18 h.
Data set [6] relates to Salmonella enterica subsp. enterica serovar Abony. As to the kind of experiment: Antibacterial activity against Salmonella abony NCTC 6017 after 18 hrs by serial microdilution method. The format is functional. The note with it: NCTC 6017, 18 h.
A further data set relates to Trichophyton rubrum. As to the kind of experiment: Antifungal activity against Trichophyton rubrum ATCC 28188 after 18 hrs by serial microdilution method. In kind it is functional. The note with it: ATCC 28188, 18 h.
The test system of another data set is Candida albicans. The experiment in a line: Antifungal activity against Candida albicans ATCC 10231 after 18 hrs by serial microdilution method. The format is functional. The note with it: ATCC 10231, 18 h.
The test system of data set [7] is Mycobacterium tuberculosis. As to the kind of experiment: Antituberculosis activity against Mycobacterium tuberculosis H37Rv after 7 days by serial two fold dilution method. The format is functional. The note with it: 168 h.
The nature of data set [8]: Solubility in water at pH 7 and 25 degC by UV-vis spectrophotometry. The format is physicochemical.
Data set [9] is described as follows: Octanol-water partition coefficient, log P of the compound. The format is physicochemical.

Values after ≈ are worked out from the molar mass of the structure shown. Where only a bound is given, the exact number is not on record here.

`CO[C@H]1/C=C/O[C@@]2(C)Oc3c(C)c(O)c4c(O)c(c(CNCCCN5CCN(CCCNCc6c7c(O)c8c(O)c(C)c9c(c8c6O)C(=O)[C@@](C)(O/C=C/[C@H](OC)[C@@H](C)[C@@H](OC(C)=O)[C@H](C)[C@H](O)[C@H](C)[C@@H](O)[C@@H](C)/C=C/C=C(/C)C(=O)N7)O9)CC5)c(O)c4c3C2=O)NC(=O)/C(C)=C\C=C\[C@H](C)[C@H](O)[C@@H](C)[C@@H](O)[C@@H](C)[C@H](OC(C)=O)[C@@H]1C`: the MIC (in the data set with Staphylococcus aureus [1]; with Staphylococcus aureus [2]; against Staphylococcus aureus [3]; in data set [4]; in data set [5]; in the data set with Escherichia coli) was greater than 1 mg/L in each case. In addition, the minimum inhibitory concentration (MIC) (against Enterococcus faecalis; in data set [6]; in the data set with Trichophyton rubrum; against Candida albicans; in data set [7]) was greater than 1 mg/L each time. Besides, the solubility – broadly, the concentration that dissolves in the medium under given conditions – in data set [8] is less than 0.01 mg/mL. Moreover, the lipophilicity (logP) (in general, a log measure of how a compound divides between an organic and an aqueous phase) in data set [9] was 3.83.
`CO[C@H]1/C=C/O[C@@]2(C)Oc3c(C)c(O)c4c(O)c(c(CNCc5cn(CN6C(=O)c7ccccc7C6=O)nn5)c(O)c4c3C2=O)NC(=O)/C(C)=C\C=C\[C@H](C)[C@H](O)[C@@H](C)[C@@H](O)[C@@H](C)[C@H](OC(C)=O)[C@@H]1C`: the MIC (commonly the least concentration at which growth counts as inhibited) with Staphylococcus aureus [1] is 1 mg/L (≈ 1.03 µM); against Staphylococcus aureus [2] it was greater than 1 mg/L; against Staphylococcus aureus [3], 1 mg/L (≈ 1.03 µM); in [4], 0.5 mg/L (≈ 0.517 µM); in data set [5] it was 0.5 mg/L (≈ 0.517 µM); against Escherichia coli it was greater than 1 mg/L. Also, the minimal inhibitory concentration (MIC) against Enterococcus faecalis is greater than 1 mg/L; in [6], greater than 1 mg/L; in the data set with Trichophyton rubrum, greater than 1 mg/L; against Candida albicans it was greater than 1 mg/L; in [7], 0.25 mg/L (≈ 0.259 µM). Also, the solubility in [8] is less than 0.01 mg/mL. Also, the lipophilicity (logP) in data set [9] was 2.24.
